pIC50: −log10 of the molar value.
Tested on: T1, EhDNApolB2
T1 construct: N-terminal 153 residues deleted, 660-aa C-terminal exonuclease and polymerase region, pCOLD I vector (IMAC-purified), E. coli BL21 DE3 Rosetta II, 78 kDa
Assay: primer extension on M13mp18 ssDNA, denaturing gel, phosphorimaging
Format: biochemical, Entamoeba histolytica
Settings: 25 µM dNTPs; 1 nM 32P-labelled 17mer primer / circular M13mp18 ssDNA; 20 nM enzyme; 10 min, 37 °C; read-out: reduced by half at a concentration of

C[C@@]1(CO)[C@H](O)CC[C@@]2(C)[C@H]1CC[C@H]1C[C@@H]3C[C@@]12CC[C@]3(O)CO [aphidicolin]
pIC50: 3.62

— publication PMC3511435, “A Transposon-Derived DNA Polymerase from Entamoeba histolytica Displays Intrinsic Strand Displacement, Processivity and Lesion Bypass” (PLoS ONE, 2012)
